1 compound from patent EP4417190A1, “CYCLIC PEPTIDES WITH ANTI-AGING EFFICACY” (Lipotrue, S.L., priority 2023, dated 2024) can be followed below.

Data set [1] deals with calreticulin (CALR). Put plainly: Calreticulin immunofluorescence quantification in HEKa. Particulars: 0.005 mg/mL, 24 h. The class given is cell-based, human. The method, then:
The effect of the cycled peptide on the expression of calreticulin (CALR) in human epidermal keratinocytes from adult (HEKa) was analyzed through fluorescence microscopy evaluation.
HEKa cells were cultured on coverslips in Dermal Cell Basal Medium (DCBM) at a density of 50.000 cell/well and incubated at 37 °C in a humidified atmosphere with 5% CO2. When cell confluence was around 80%, cells were treated with cycled peptide B at 0.005 mg/mL for 24 h. After treatment, samples were washed twice with PBS, fixed with 4% formaldehyde and permeabilized with Triton X-100 0.2%. Next, samples were blocked for 1 hour with PBS/BSA 5%, in order to avoid nonspecific antibody binding. […]
Images were analyzed using Image J software. Shortly, threshold was adjusted to select CALR staining and mean fluorescent was measured. The number of cells was counted using the DAPI staining. […] Finally, all data was normalized as follows to obtain the % of CALR compared to untreated cells (Basal): % vs Basal = (fluorescence per cell in treated samples)/(fluorescence per cell in untreated samples) × 100 [formula]
Statistical data analysis was performed using Student t-test by comparison of % fluorescence from peptide B treated samples vs. untreated samples, (*, p < 0.05; **, p < 0.01 and ***, p < 0.001).

Data set [2] is described as follows: MTT assay, toxicity on HEKa cells. It is filed as cell-based. Particulars: human, normalized to non-treated cells, read-out: Cell viability. The method, then:
Toxicity of cycled peptides A and B was analyzed on human dermal fibroblasts (HDFa) and adult human epidermal keratinocytes HEKa cells by MTT assay. A stock solution of the peptide was prepared in distilled water at 25 mg/mL. This stock solution was further diluted to obtain the final working concentrations (0.001, 0.005, 0.01, 0.05, 0.1 and 0.5 mg/mL) in the corresponding culture medium. Untreated cells were used as negative control samples (Basal).
Briefly, HEKa and HDFa cells were seeded in 96-well plates at a concentration of 1×10^5 cells/mL in a final volume of 200 µL of medium (20,000 cells/well). HEKa cells were incubated in Dermal Cell Basal Medium supplemented with the Keratinocytes Growth Kit; and HDFa cells were cultured in Medium 106 supplemented with 2% of LSGS. Cells were incubated at 37°C, 5% CO2 and saturated humidity.
After 24 h of incubation, cells were treated with different concentrations of each peptide (0.001, 0.005, 0.01, 0.05, 0.1 and 0.5 mg/mL) in triplicates, for MTT evaluation. After 24 h of treatment with the peptide, medium was completely removed, and 100 µL of 0.5 mg/mL MTT solution in supplemented medium were added to each well and cells were incubated at 37°C for 3 h. After incubating with MTT, the medium of each well was aspirated and 150 µL of DMSO were added in order to solubilise the formazan crystals formed. The plates were placed on a shaker for 5 minutes for complete solubilisation of the crystals and then the absorbance at 570 nm of each well was determined, using the microplate reader Multiskan FC, which is directly proportional to the number of living cells in culture.
Absorbance values were normalized using the data obtained for non-treated cells (control), obtaining the % of viability shown in Tables 1 and 2. Each condition was performed in triplicate (n=3) in 3 independent experiments (N=3).
Concentrations of peptide for which viability is above 80% are considered safe for efficacy testing. On the contrary, concentrations for which viability goes below 80% are considered potentially toxic and are not used for efficacy testing purposes. Table 1: Toxicity of cycled peptides on HDFa cells.

Data set [3] has as its system TGFBR3. Put plainly: RT-qPCR expression of aging-related gene TGFBR3 in HEKa. The class given is cell-based, human. Particulars: 0.01 mg/mL, 24 h.
Procedure: Then, cells were lysed, and RNA was extracted (RNeasy mini kit, Qiagen). Purified RNAs were retro-transcribed (High-capacity cDNA reverse transcription kit, Applied Biosystems). RT-qPCR was performed with the panel of TaqMan assay probes (Thermo Fisher Scientific) using StepOne plus Real time PCR instrument. […] The obtained data were analyzed using the ΔΔCt method, which provides the target gene expression values as fold changes in the treated sample compared with an untreated basal sample. Both samples were normalized with the relative expression of the housekeeping gene GAPDH.
Data set [4] has as its system human immunoglobulin binding protein (BiP). Description: BiP ELISA in HEKa cell lysates. Particulars: 24 hours. The class given is cell-based. The method, then:
The effect of cycled peptides was determined on the production of human immunoglobulin binding protein (BiP) in human epidermal keratinocytes from adult (HEKa), through quantification of this protein in vitro in cell culture lysates by enzyme linked immunosorbent assay (ELISA).
In this study the BiP levels in human epidermal keratinocytes treated with cycled peptide B was evaluated, through quantification of this protein in vitro in cell culture lysates by enzyme linked immunosorbent assay (ELISA).
HEKa cells were seeded in a 24-well plate at a density of 50.000 cells/well and maintained at standard culture conditions (Supplemented Dermal Cell Basal Medium, DCBM; 37°C, 95% RH, 5% CO2) for 24 hours. Then, keratinocytes were treated for 24 hours with or without the presence of 0.01 or 0.05 mg/mL of cycled peptide A or peptide B. After treatment, cells were lysed with RIPA buffer and lysates were collected and centrifuged in order to eliminate cell debris and were kept at -80°C until they were used for BiP quantification with BiP ELISA Kit according to manufacturer instructions. In order to normalize data, total protein content of each sample was quantified through Micro BCA Protein Assay kit according to manufacturer instructions.
Each condition was performed at least in triplicate (n=3) in three independent experiments (N=3). For all data, mean values of the different experiments and SEM values are shown. All data was first normalized as follows: BiP levels/cell = (BiP levels per well)/(Total protein (BCA) per well) [formula] % vs Basal = (BiP per cell in treated samples)/(Bip per cell in untreated samples) × 100 [formula]
Statistical data analysis was performed using Student t-test by comparison of % BiP expression from cells untreated (Basal) vs. treated with cycled peptide samples, *p<0.05, **p<0.01, ***p<0.001.

Like-named read-outs stand apart in the source and are kept apart here.

Turning to `CC(C)C[C@@H]1NC(=O)[C@H](C)NC(=O)[C@H](Cc2c[nH]cn2)NC(=O)[C@H](Cc2c[nH]c3ccccc23)NC(=O)[C@H](Cc2ccccc2)NC(=O)[C@H](CCCNC(=N)N)NC1=O` [Peptide B, cyclo-Phe-Trp- His- Ala-Leu-Arg], the “% Mean (CALR fluorescence per cell, % vs Basal)” value in data set [1] is given as 179.45%. Further, the “increased CALR levels when compared with untreated cells” value in data set [1] is listed as “up to 79%”. Besides, the viability at 24 h is 102% in data set [2] (0.001 mg/mL peptide); 103% in data set [2] (0.005 mg/mL peptide); 107% in data set [2] (0.01 mg/mL peptide); 91.4% in data set [2] (0.05 mg/mL peptide); 85.8% in data set [2] (0.1 mg/mL peptide); 61.8% in data set [2] (0.5 mg/mL peptide). The “Fold change vs. Basal” value in data set [3] was found to be 1.23. Besides, the Mean normalized expression in data set [3] (normalized to GAPDH) is 2.54E-02. For the same compound, the “% Mean (BiP per cell, % vs Basal)” value in data set [4] (0.01 mg/mL) amounted to 110.18%; in data set [4] (0.05 mg/mL) it was 123.74%. Further, the “increase of BiP levels, increment when compared with untreated cells (Basal)” value in data set [4] (concentration dependent) was “up to 24%”.
